Measurements from patent publication US20120220546A1, “COMPOSTIONS DESIGNED FOR THE INHIBITION AND/OR BLOCKING OF THE EPITHELIAL/MESENCHYMAL TRANSITION” (priority 2009, published 2012).

Tested on: zebrafish embryos
Assay: Zebrafish embryo model of EMT inhibition
Type: in vivo
Details: 100 μM DAPT dissolved in the medium, 32-hpf embryos
Method: The necessary embryos to develop the study were obtained and kept at 28.5° C. in the incubator until the treatment was to begin (24 hpf and 32 hpf). The embryos were dechorionated at 24 hpf and deposited on a Petri dish with E3 medium. Prior to injecting the product, the fish were treated with 0.04% tricaine and, once they were asleep, they were placed on an agarose plate with a number of wedge-shaped grooves, where the embryos were aligned and immobilised in order to be injected. The mixture of the assay product to be injected was loaded in the injection capillary and a volume of 15 nl was injected in the perivitelline space. 20 embryos were injected per condition. […] These were deposited in 24-well plates (5 embryos per well) in 0.5 ml of E3 medium without methylene blue or antibiotic, and incubated at 28.5° C. until they were to be analyzed. As a control, embryos were injected with HBSS +0.5% rhodamine-dextran. […]
The embryos were analyzed at 53, 72 and 96 hpf, and the presence of the following phenotypes was searched for in each of the embryos used in the study: • alteration of the somite bonds (somite boundaries). • morphological alterations of the embryos in general. • appearance of edemas in the pericardial area. • morphological alterations in the heart, as well as alterations in blood circulation and alterations in the formation of the vascular system.

C[C@H](NC(=O)Cc1cc(F)cc(F)c1)C(=O)N[C@H](C(=O)OC(C)(C)C)c1ccccc1 [DAPT]
phenotype of positive control: appearance of pericardial edemas, alterations of the somite bonds, and alteration or absence of blood circulation
